Measurements published in patent US8552060B2, “Methods for treatment of sexual dysfunction” (SK Biopharmaceuticals Co., Ltd., priority 2005, dated 2013).

Experiments:
[1] = tested on: rats and mice; test: Locomotor activity in rats and mice; type: in vivo; settings: at higher dose
Excerpt: Although the mechanism of action of test compound is unknown, this pharmacological profile may involve activation of central catecholaminergic pathways.

[2] = tested on: humans; test: Placebo controlled antidepressant trial in humans, analysis of post trial questionnaires; type: in vivo, human; settings: mostly in males
Excerpt: This was a large placebo controlled study where the test compound was compared with a conventional SSRI antidepressant (Paroxetine). […] This study was not designed to see or evaluate this property of the compound and so future studies directed specifically to assess this property of test compound in humans will be performed.

[3] = tested on: ovariectomized estrogen treated rat; test: Lordotic response in the ovariectomized estrogen treated rat (female sexual behavior); type: in vivo
Description: For initial preclinical evaluation of the effects on sexual behavior, the following study was conducted to evaluate the effects of test compound on lordotic response in the ovariectomized estrogen treated rat.
Animals: Long-Evans hooded female rates (100-125 g) male Sprague-Dawley rats (150-175 g) were obtained from Charles River Breeding laboratories.
Chemicals: Progesterone (Cat. # P-0130; Lot 128H0456) and estrone (Cat # E-9750; Lot 28H0372) were purchased from Sigma Chemical Company and quinelorane Cat # Q-110; Lot PRF-694A) and bupropion (Cat # B-102; BS-11-10) were purchased from Research Biochemicals Incorporated. Test compound (Lot # D5-91B) was synthesized at SK Biopharmaceutical Center, Fairfield, N.J. Estrone and progesterone were dissolved in propylene glycol (Fisher Scientific P355-1; Lot # 992032). test compound, quinelorane and bupropion were dissolved in sterile saline (0.9% NaCl, Abbott Laboratories Lot #25-270-DK).
Protocol for ovariectomy: Female rats (108-120 g) were anesthetized with 100 mg/kg s.c. ketamine (Ketaset 100 mg/ml, Ford Dodge Laboratories, lot #440339) and 7 mg/kg s.c. xylazine (Rompun 20 mg/ml, Bayer Corporation, lot #26050E). A midline incision (1 cm) on the ventral surface was made starting approximately 0.5-1 cm from the genitalia. A second incision (1 cm) was through the linea alba connecting fascia for abdominal muscles. The body of the uterus was located near the pubic bone and retracted through the abdominal incision. The uterine horns with ovaries were retracted through the abdominal wall. Each uterine horn was ligated near the uterine body bisected and removed. The abdominal, wall was closed with 2 sutures and the skin incision was closed with either wound clips or sutures. The rats were kept warm until they recovered from the anesthesia. OVX=ovariectomized.
Accelerated light cycle (10:14): Lights were on from 1 am to 11 am. During dark phase, the room was kept dark except for lighting from red lights needed to observe the behaviors.
Behavior observation arenas: Side walls (45×60 cm) and top (60×60 cm) with hole (15×15 cm) were constructed of clear Lucite plastic and bonded together with adhesive. The base was made from stainless steel grating and was placed over bedding material. Arenas and base were washed between experiments.
Protocol for female sexual behavior: At least 2-3 hours into the dark phase of the lighting cycle, male rats are placed into the behavior arenas and allowed to acclimate for 15 minutes prior to testing. Prior to the testing of experimental animals, the males are exposed to sexually receptive, OVX rats treated with estrone 0.25 mg s.c. 48 hours prior to test and progesterone 1 mg s.c. 6 hours prior to test. When active mating occurs, the receptive females are removed. The test female (OVX treated only with estrone 0.25 mg 48 hours prior to test) is added to the arena with the activated male. The number of lordosis responses for 15 mounts is recorded (lordosis is defined as a downward arching of the back to expose genitalia).
During this first test period, only female rats with a L/M of 4/15 or lower were treated with test drug and 90 minutes later the rats were retested as previously for 15 mounts. This exclusion criterion is used to lower the variance due to rats that become overly receptive to estrone. The index of change is the change in L/M between test 2 and test 1. Statistical comparisons of the treatment groups were made using ANOVA followed by a Dunnett's test for multiple treatment group designs and a Student's t test for single control and treatment designs with the minimum level of significance set at p<0.05.

[4] = tested on: patients; settings: Foreman 1995; cited from earlier work

SMILES: NC(=O)OC[C@H](N)Cc1ccccc1 [test compound, O-carbamoyl-(D)-phenylalaninol]
- Effects on locomotor activity [1]: stimulant-like effects on locomotor activity
- Dose of peak effect on interest in sex and ability to have an orgasm [2]: 400 mg per day
- Effect on interest in sex and ability to have an orgasm (post trial questionnaires) ([2]; placebo controlled study with Paroxetine comparator): increasing interest in sex and in ability to have an orgasm
- Change in Lordotic Response ([3]; 10 mg/kg s.c., change in L/M between test 2 and test 1, retest 90 minutes after drug, OVX estrone treated female rats): 0.338 +/− 0.049
- Change in Lordotic Response ([3]; 30 mg/kg s.c., change in L/M between test 2 and test 1, retest 90 minutes after drug, * significantly different from vehicle (ANOVA, Dunnett's test)): 0.476 +/− 0.049 *
- Change in Lordotic Response ([3]; 100 mg/kg s.c., change in L/M between test 2 and test 1, retest 90 minutes after drug, * significantly different from vehicle (ANOVA, Dunnett's test)): 0.559 +/− 0.059 *
- Lordotic response compared to vehicle treatment ([3]; 30 and 100 mg/kg s.c.): significantly greater lordotic response than vehicle treatment
- Lordotic behavior in the female rat, dose relation ([3]; doses of 10, 30 and 100 mg/kg s.c.): dose-related increases in lordotic behavior

SMILES: CC(NC(C)(C)C)C(=O)c1cccc(Cl)c1 (centres unmarked) [Bupropion, bupropion, reference compound]
- Effect on sexual response in patients [4]: augment sexual response in patients
- Lordotic response compared to vehicle treatment ([3]; 30 mg/kg s.c.): significant increases in lordotic response
- Change in Lordotic Response ([3]; 30 mg/kg s.c., change in L/M, * significantly different from vehicle (Student's test)): 0.478 +/− 0.073 *

SMILES: CCCN1CCC[C@@H]2Cc3nc(N)ncc3C[C@H]21 [Quinelorane, quinelorane, reference compound]
- Effect on sexual response in patients [4]: augment sexual response in patients
- Lordotic response compared to vehicle treatment ([3]; 25 μg/kg s.c.): significant increases in lordotic response
- Change in Lordotic Response ([3]; 25 μg/kg s.c., change in L/M, * significantly different from vehicle (Student's test)): 0.593 +/− 0.056 *
